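Exposure lasted 48 hours, with cells grown in 96-well plates and compounds tested at five concentrations. TGI marks complete inhibition of growth.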

Drawing on PubChem BioAssay (NCI), this text covers TGI for 4 molecules.

One assay deals with IGROV1 ovarian. The assay is described as follows: NCI tumour cell line growth inhibition, 48 h.
Molecule `CCCCN(CC)c1nc(C)nc2c1c(C)c(C)n2-c1c(C)cc(C)cc1C` returned a TGI of 29.2 µM.
`CC1C(c2cc(C(C)(C)C)c(O)c(C(C)(C)C)c2)c2cc3c(cc2OC1N1CCOCC1)OCO3` (stereo unspecified): the TGI was above 100 µM.
As for `N#Cc1c(N)[nH]c(=S)c(C#N)c1-c1cccc(Cl)c1`, the TGI was above 100 µM.
Turning to `CO[C@@H](C(=O)OC1C=CC2(CC1)C(=O)N(C)c1ccccc12)c1ccccc1` (stereo partly specified), the TGI is above 100 µM.

For a further assay, the system named is NCI-H226 lung. The assay can be described thus: NCI tumour cell line growth inhibition, 48 h.
For `CCCCN(CC)c1nc(C)nc2c1c(C)c(C)n2-c1c(C)cc(C)cc1C`, the TGI stood at 30.1 µM.
Same read-out and setting: the result for `N#Cc1c(N)[nH]c(=S)c(C#N)c1-c1cccc(Cl)c1` reads above 100 µM.

The test system of a further assay is HCT-15 colon. The assay can be described thus: NCI tumour cell line growth inhibition, 48 h.
The molecule `CCCCN(CC)c1nc(C)nc2c1c(C)c(C)n2-c1c(C)cc(C)cc1C` came in with a TGI of 27.6 µM.
As for `N#Cc1c(N)[nH]c(=S)c(C#N)c1-c1cccc(Cl)c1`, the TGI was above 100 µM.
In turn, `CO[C@@H](C(=O)OC1C=CC2(CC1)C(=O)N(C)c1ccccc12)c1ccccc1` (stereo partly specified) showed a TGI above 100 µM.

A further assay concerns HOP-62 NSCLC. The assay can be described thus: NCI tumour cell line growth inhibition, 48 h.
Consider `CCCCN(CC)c1nc(C)nc2c1c(C)c(C)n2-c1c(C)cc(C)cc1C`, for which the TGI was 32.9 µM.
On to `CC1C(c2cc(C(C)(C)C)c(O)c(C(C)(C)C)c2)c2cc3c(cc2OC1N1CCOCC1)OCO3` (stereo unspecified), for which the TGI came out at 33.4 µM.
`N#Cc1c(N)[nH]c(=S)c(C#N)c1-c1cccc(Cl)c1` had a TGI above 100 µM.
Regarding `CO[C@@H](C(=O)OC1C=CC2(CC1)C(=O)N(C)c1ccccc12)c1ccccc1` (stereo partly specified), the TGI is above 100 µM.

In a further assay the test system is MCF7 breast. The assay is described as follows: NCI tumour cell line growth inhibition, 48 h.
With `CC1C(c2cc(C(C)(C)C)c(O)c(C(C)(C)C)c2)c2cc3c(cc2OC1N1CCOCC1)OCO3` (stereo unspecified), the TGI is above 100 µM.
Same read-out and setting: the same measure for `N#Cc1c(N)[nH]c(=S)c(C#N)c1-c1cccc(Cl)c1`: above 100 µM; for `CO[C@@H](C(=O)OC1C=CC2(CC1)C(=O)N(C)c1ccccc12)c1ccccc1` (stereo partly specified): above 100 µM.

In a further assay the test system is PC-3 prostate. The assay is described as follows: NCI tumour cell line growth inhibition, 48 h.
For the molecule `CCCCN(CC)c1nc(C)nc2c1c(C)c(C)n2-c1c(C)cc(C)cc1C`, the TGI came to 26.6 µM.
On to `CC1C(c2cc(C(C)(C)C)c(O)c(C(C)(C)C)c2)c2cc3c(cc2OC1N1CCOCC1)OCO3` (stereo unspecified), for which the TGI is 31.6 µM.
For `N#Cc1c(N)[nH]c(=S)c(C#N)c1-c1cccc(Cl)c1`, the TGI is 60.1 µM.
Turning to `CO[C@@H](C(=O)OC1C=CC2(CC1)C(=O)N(C)c1ccccc12)c1ccccc1` (stereo partly specified), the TGI is above 100 µM.

The test system of another assay is TK-10 renal. The assay can be described thus: NCI tumour cell line growth inhibition, 48 h.
As to `CCCCN(CC)c1nc(C)nc2c1c(C)c(C)n2-c1c(C)cc(C)cc1C`, the TGI came out at 31.1 µM.
The molecule `CC1C(c2cc(C(C)(C)C)c(O)c(C(C)(C)C)c2)c2cc3c(cc2OC1N1CCOCC1)OCO3` (stereo unspecified) gave a TGI of 31.2 µM.
Consider `N#Cc1c(N)[nH]c(=S)c(C#N)c1-c1cccc(Cl)c1`, for which the TGI is above 100 µM.
Same read-out and setting: the same measure for `CO[C@@H](C(=O)OC1C=CC2(CC1)C(=O)N(C)c1ccccc12)c1ccccc1` (stereo partly specified): above 100 µM.

The test system of the next assay is ACHN renal. The assay can be described thus: NCI tumour cell line growth inhibition, 48 h.
`CCCCN(CC)c1nc(C)nc2c1c(C)c(C)n2-c1c(C)cc(C)cc1C` yielded a TGI of 28.1 µM.
In turn, `CC1C(c2cc(C(C)(C)C)c(O)c(C(C)(C)C)c2)c2cc3c(cc2OC1N1CCOCC1)OCO3` (stereo unspecified) returned a TGI of 22.7 µM.
In the case of `N#Cc1c(N)[nH]c(=S)c(C#N)c1-c1cccc(Cl)c1`, the TGI is above 100 µM.
Regarding `CO[C@@H](C(=O)OC1C=CC2(CC1)C(=O)N(C)c1ccccc12)c1ccccc1` (stereo partly specified), the TGI is above 100 µM.

The test system of the next assay is SW-620 colon. The assay can be described thus: NCI tumour cell line growth inhibition, 48 h.
On to `CCCCN(CC)c1nc(C)nc2c1c(C)c(C)n2-c1c(C)cc(C)cc1C`, for which the TGI came to 33.4 µM.
With `CC1C(c2cc(C(C)(C)C)c(O)c(C(C)(C)C)c2)c2cc3c(cc2OC1N1CCOCC1)OCO3` (stereo unspecified), the TGI was above 100 µM.
`N#Cc1c(N)[nH]c(=S)c(C#N)c1-c1cccc(Cl)c1` displayed a TGI above 100 µM.
`CO[C@@H](C(=O)OC1C=CC2(CC1)C(=O)N(C)c1ccccc12)c1ccccc1` (stereo partly specified) showed a TGI above 100 µM.

The subject of the next assay is COLO 205 colon. The assay is described as follows: NCI tumour cell line growth inhibition, 48 h.
`CCCCN(CC)c1nc(C)nc2c1c(C)c(C)n2-c1c(C)cc(C)cc1C` registered a TGI of 32.6 µM.
Consider `CC1C(c2cc(C(C)(C)C)c(O)c(C(C)(C)C)c2)c2cc3c(cc2OC1N1CCOCC1)OCO3` (stereo unspecified), for which the TGI was above 100 µM.
As for `N#Cc1c(N)[nH]c(=S)c(C#N)c1-c1cccc(Cl)c1`, the TGI is 40.9 µM.
As to `CO[C@@H](C(=O)OC1C=CC2(CC1)C(=O)N(C)c1ccccc12)c1ccccc1` (stereo partly specified), the TGI is above 100 µM.

The next assay has as its system NCI-H460 lung. The assay is described as follows: NCI tumour cell line growth inhibition, 48 h.
Molecule `CCCCN(CC)c1nc(C)nc2c1c(C)c(C)n2-c1c(C)cc(C)cc1C` gave a TGI of 27.5 µM.
Regarding `CC1C(c2cc(C(C)(C)C)c(O)c(C(C)(C)C)c2)c2cc3c(cc2OC1N1CCOCC1)OCO3` (stereo unspecified), the TGI was 87 µM.
Regarding `N#Cc1c(N)[nH]c(=S)c(C#N)c1-c1cccc(Cl)c1`, the TGI is above 100 µM.
`CO[C@@H](C(=O)OC1C=CC2(CC1)C(=O)N(C)c1ccccc12)c1ccccc1` (stereo partly specified) returned a TGI above 100 µM.

A further assay has as its system HCT-116 colon. The assay is described as follows: NCI tumour cell line growth inhibition, 48 h.
Regarding `CCCCN(CC)c1nc(C)nc2c1c(C)c(C)n2-c1c(C)cc(C)cc1C`, the TGI amounted to 23.4 µM.
Still for that read-out and setting: the same measure for `CC1C(c2cc(C(C)(C)C)c(O)c(C(C)(C)C)c2)c2cc3c(cc2OC1N1CCOCC1)OCO3` (stereo unspecified): 30.7 µM; for `N#Cc1c(N)[nH]c(=S)c(C#N)c1-c1cccc(Cl)c1`: 60.6 µM.
Molecule `CO[C@@H](C(=O)OC1C=CC2(CC1)C(=O)N(C)c1ccccc12)c1ccccc1` (stereo partly specified) had a TGI above 100 µM.

Another assay has as its system MDA-N. The assay can be described thus: NCI tumour cell line growth inhibition, 48 h.
As for `CCCCN(CC)c1nc(C)nc2c1c(C)c(C)n2-c1c(C)cc(C)cc1C`, the TGI came to 38.6 µM.
In the case of `CC1C(c2cc(C(C)(C)C)c(O)c(C(C)(C)C)c2)c2cc3c(cc2OC1N1CCOCC1)OCO3` (stereo unspecified), the TGI is above 100 µM.
`N#Cc1c(N)[nH]c(=S)c(C#N)c1-c1cccc(Cl)c1` returned a TGI of 37.8 µM.
For the molecule `CO[C@@H](C(=O)OC1C=CC2(CC1)C(=O)N(C)c1ccccc12)c1ccccc1` (stereo partly specified), the TGI is above 100 µM.

The test system of the next assay is SK-OV-3 ovarian. The assay is described as follows: NCI tumour cell line growth inhibition, 48 h.
With `CCCCN(CC)c1nc(C)nc2c1c(C)c(C)n2-c1c(C)cc(C)cc1C`, the TGI was found to be 32.9 µM.
`CO[C@@H](C(=O)OC1C=CC2(CC1)C(=O)N(C)c1ccccc12)c1ccccc1` (stereo partly specified) came in with a TGI above 100 µM.

A further assay has as its system MDA-MB-231 breast. The assay can be described thus: NCI tumour cell line growth inhibition, 48 h.
`CCCCN(CC)c1nc(C)nc2c1c(C)c(C)n2-c1c(C)cc(C)cc1C`: the TGI amounted to 29.1 µM.
